Results from PubChem BioAssay (NCI).
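Dose response: 5 concentrations. Exposure: 48 h. Format: 96-well plates. Endpoint: linear interpolation; highest concentration if not reached. The concentration for 50% growth inhibition is given as GI50. TGI: total growth inhibition.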

test system: 786-0 renal; test: DTP human tumour cell line panel, 48 h

Structure (SMILES) | TGI [µM] | GI50 [µM]
O=C(O/N=C1/CCC/C1=C\c1ccccc1)c1ccc([N+](=O)[O-])cc1 | > 100 | –
O=C1CSC(N2CCN(c3cccc(Cl)c3)CC2)=N1 | > 100 | > 100
C1CN2N3CCCC23C1 (stereo not given) | > 100 | –
CN(C)CCNc1nc2ccccc2c2[nH]c3ccccc3c12 | 2.51 | 0.396
CNC(=O)c1cc(Oc2ccc3c(c2)sc2nc(-c4ccc(N)cc4)cn23)ccn1 | > 100 | 0.433
CCC1CCC2CCCC(C)N12 (stereo not given) | > 100 | –
COc1cc2c(c(OC)c1OC)-c1ccc(NCc3ccccc3)c(=O)cc1[C@@H](NC(C)=O)CC2 | 46.8 | 0.745

test system: HOP-62 NSCLC; test: DTP human tumour cell line panel, 48 h

Structure (SMILES) | TGI [µM] | GI50 [µM]
O=C(O/N=C1/CCC/C1=C\c1ccccc1)c1ccc([N+](=O)[O-])cc1 | > 100 | –
O=C1CSC(N2CCN(c3cccc(Cl)c3)CC2)=N1 | > 100 | > 100
C1CN2N3CCCC23C1 (stereo not given) | > 100 | –
CN(C)CCNc1nc2ccccc2c2[nH]c3ccccc3c12 | 1.8 | 0.203
CNC(=O)c1cc(Oc2ccc3c(c2)sc2nc(-c4ccc(N)cc4)cn23)ccn1 | > 100 | 0.346
CCC1CCC2CCCC(C)N12 (stereo not given) | > 100 | –
COc1cc2c(c(OC)c1OC)-c1ccc(NCc3ccccc3)c(=O)cc1[C@@H](NC(C)=O)CC2 | 16.9 | 0.413

test system: IGROV1 ovarian; test: DTP human tumour cell line panel, 48 h

Structure (SMILES) | TGI [µM] | GI50 [µM]
O=C(O/N=C1/CCC/C1=C\c1ccccc1)c1ccc([N+](=O)[O-])cc1 | > 100 | –
O=C1CSC(N2CCN(c3cccc(Cl)c3)CC2)=N1 | > 100 | > 100
C1CN2N3CCCC23C1 (stereo not given) | > 100 | –
CN(C)CCNc1nc2ccccc2c2[nH]c3ccccc3c12 | > 31.7 | 0.97
CNC(=O)c1cc(Oc2ccc3c(c2)sc2nc(-c4ccc(N)cc4)cn23)ccn1 | > 100 | 0.609
CCC1CCC2CCCC(C)N12 (stereo not given) | > 100 | –
COc1cc2c(c(OC)c1OC)-c1ccc(NCc3ccccc3)c(=O)cc1[C@@H](NC(C)=O)CC2 | 16.8 | 0.595

test system: K-562 leukemia; test: DTP human tumour cell line panel, 48 h

Structure (SMILES) | TGI [µM] | GI50 [µM]
O=C(O/N=C1/CCC/C1=C\c1ccccc1)c1ccc([N+](=O)[O-])cc1 | > 100 | –
O=C1CSC(N2CCN(c3cccc(Cl)c3)CC2)=N1 | > 100 | > 100
C1CN2N3CCCC23C1 (stereo not given) | > 100 | –
CN(C)CCNc1nc2ccccc2c2[nH]c3ccccc3c12 | 9.23 | 0.748
CNC(=O)c1cc(Oc2ccc3c(c2)sc2nc(-c4ccc(N)cc4)cn23)ccn1 | > 100 | 0.0911
CCC1CCC2CCCC(C)N12 (stereo not given) | > 100 | –
COc1cc2c(c(OC)c1OC)-c1ccc(NCc3ccccc3)c(=O)cc1[C@@H](NC(C)=O)CC2 | > 100 | 0.381

test system: KM12 colon; test: DTP human tumour cell line panel, 48 h

Structure (SMILES) | TGI [µM] | GI50 [µM]
O=C(O/N=C1/CCC/C1=C\c1ccccc1)c1ccc([N+](=O)[O-])cc1 | > 100 | –
O=C1CSC(N2CCN(c3cccc(Cl)c3)CC2)=N1 | > 100 | > 100
C1CN2N3CCCC23C1 (stereo not given) | > 100 | –
CN(C)CCNc1nc2ccccc2c2[nH]c3ccccc3c12 | 2.92 | 0.328
CNC(=O)c1cc(Oc2ccc3c(c2)sc2nc(-c4ccc(N)cc4)cn23)ccn1 | > 100 | 0.196
CCC1CCC2CCCC(C)N12 (stereo not given) | > 100 | –
COc1cc2c(c(OC)c1OC)-c1ccc(NCc3ccccc3)c(=O)cc1[C@@H](NC(C)=O)CC2 | 19.9 | 0.374

test system: M14 melanoma; test: DTP human tumour cell line panel, 48 h

Structure (SMILES) | TGI [µM] | GI50 [µM]
O=C(O/N=C1/CCC/C1=C\c1ccccc1)c1ccc([N+](=O)[O-])cc1 | > 100 | –
O=C1CSC(N2CCN(c3cccc(Cl)c3)CC2)=N1 | > 100 | > 100
C1CN2N3CCCC23C1 (stereo not given) | > 100 | –
CN(C)CCNc1nc2ccccc2c2[nH]c3ccccc3c12 | 1.71 | 0.41
CNC(=O)c1cc(Oc2ccc3c(c2)sc2nc(-c4ccc(N)cc4)cn23)ccn1 | > 100 | 0.162
CCC1CCC2CCCC(C)N12 (stereo not given) | > 100 | –
COc1cc2c(c(OC)c1OC)-c1ccc(NCc3ccccc3)c(=O)cc1[C@@H](NC(C)=O)CC2 | 23.2 | 0.359

test system: MOLT-4 leukemia; test: DTP human tumour cell line panel, 48 h

Structure (SMILES) | TGI [µM] | GI50 [µM]
O=C(O/N=C1/CCC/C1=C\c1ccccc1)c1ccc([N+](=O)[O-])cc1 | > 100 | –
O=C1CSC(N2CCN(c3cccc(Cl)c3)CC2)=N1 | > 100 | > 100
C1CN2N3CCCC23C1 (stereo not given) | > 100 | –
CN(C)CCNc1nc2ccccc2c2[nH]c3ccccc3c12 | 2.37 | 0.571
CNC(=O)c1cc(Oc2ccc3c(c2)sc2nc(-c4ccc(N)cc4)cn23)ccn1 | > 60.8 | 0.26
CCC1CCC2CCCC(C)N12 (stereo not given) | > 100 | –
COc1cc2c(c(OC)c1OC)-c1ccc(NCc3ccccc3)c(=O)cc1[C@@H](NC(C)=O)CC2 | > 87.5 | 0.489

test system: SF-539 CNS; test: DTP human tumour cell line panel, 48 h

Structure (SMILES) | TGI [µM] | GI50 [µM]
O=C(O/N=C1/CCC/C1=C\c1ccccc1)c1ccc([N+](=O)[O-])cc1 | > 100 | –
O=C1CSC(N2CCN(c3cccc(Cl)c3)CC2)=N1 | > 100 | > 100
C1CN2N3CCCC23C1 (stereo not given) | > 100 | –
CN(C)CCNc1nc2ccccc2c2[nH]c3ccccc3c12 | 3.06 | 0.891
CNC(=O)c1cc(Oc2ccc3c(c2)sc2nc(-c4ccc(N)cc4)cn23)ccn1 | > 100 | 0.324
CCC1CCC2CCCC(C)N12 (stereo not given) | > 100 | –
COc1cc2c(c(OC)c1OC)-c1ccc(NCc3ccccc3)c(=O)cc1[C@@H](NC(C)=O)CC2 | 3.51 | 0.309

test system: SK-MEL-2 melanoma; test: DTP human tumour cell line panel, 48 h

Structure (SMILES) | TGI [µM] | GI50 [µM]
O=C(O/N=C1/CCC/C1=C\c1ccccc1)c1ccc([N+](=O)[O-])cc1 | > 100 | –
O=C1CSC(N2CCN(c3cccc(Cl)c3)CC2)=N1 | > 100 | > 100
C1CN2N3CCCC23C1 (stereo not given) | > 100 | –
CN(C)CCNc1nc2ccccc2c2[nH]c3ccccc3c12 | 20.9 | 2.44
CNC(=O)c1cc(Oc2ccc3c(c2)sc2nc(-c4ccc(N)cc4)cn23)ccn1 | > 100 | 0.332
CCC1CCC2CCCC(C)N12 (stereo not given) | > 100 | –
COc1cc2c(c(OC)c1OC)-c1ccc(NCc3ccccc3)c(=O)cc1[C@@H](NC(C)=O)CC2 | 22.8 | 0.643

test system: TK-10 renal; test: DTP human tumour cell line panel, 48 h

Structure (SMILES) | TGI [µM] | GI50 [µM]
O=C(O/N=C1/CCC/C1=C\c1ccccc1)c1ccc([N+](=O)[O-])cc1 | > 100 | –
O=C1CSC(N2CCN(c3cccc(Cl)c3)CC2)=N1 | > 100 | > 100
C1CN2N3CCCC23C1 (stereo not given) | > 100 | –
CN(C)CCNc1nc2ccccc2c2[nH]c3ccccc3c12 | 1.95 | 0.429
CNC(=O)c1cc(Oc2ccc3c(c2)sc2nc(-c4ccc(N)cc4)cn23)ccn1 | > 100 | 0.278
CCC1CCC2CCCC(C)N12 (stereo not given) | > 100 | –
COc1cc2c(c(OC)c1OC)-c1ccc(NCc3ccccc3)c(=O)cc1[C@@H](NC(C)=O)CC2 | > 100 | 4.82
